Assay results from patent publication US20220008449A1, “A METHOD OF MIMICKING BENEFITS OF DIETARY RESTRICTION BY TRANSIENTLY UPREGULATING ER STRESS RESPONSE” (NATIONAL INSTITUTE OF IMMUNOLOGY, priority 2018, published 2022).
“Also recorded” adds a separate entry of the source.

Columns and labels:
Format in all cases: in vivo, Caenorhabditis elegans
C. elegans = assay: Adult life span after transient (first 24 h) Tm or 2DG supplementation
Description: Gravid adult worms, initially grown on E. coli OP50 were bleached and eggs were hatched on different RNAi plates. On reaching adulthood, 50-60 young adult worms were transferred to the similar RNAi plates in triplicates and overlaid with Fluoro-deoxyuridine (FudR) to final concentration of 0.1 mg/ml of agar (2). At the 7th Day of adulthood, sick, sluggish and slow dwelling worms were removed from the life span population and the remaining were considered as the number of subjects ‘N’. Following this, number of dead worms were scored every alternate day and plotted as % survival against the number of days. Statistical analysis for survival was conducted using Mantel-Cox Log Rank test using Oasis software. Average life span was also determined using the same method and represented as Mean life span±Standard Error Mean (S.E.M).
Overnight grown bacterial culture expressing Control or test RNAi were re-inoculated in 200 ml fresh LB media and grown at 37° C. until OD600 reached 0.5-0.6. The culture was divided in two parts (A and B) in a ratio of 1:3 and cells are pelleted separately using a centrifuge (4810R, Eppendorf, Germany) at 5000 r.p.m for 10 minutes at 4° C. Pellet from part B (150 ml) of the culture was resuspended in 1×M9 buffer containing 100 μg/ml ampicillin and 1 mM IPTG to 1/10th of its initial culture volume (for 150 ml culture, 15 ml of resuspension buffer was used) and 350 μl was seeded onto each RNAi plate and left for drying at room temperature for 24 hours.
Gravid adult worms initially grown on E. coli OP50 bacteria were bleached and eggs were re-suspended in 100-200 ul of 1×M9 buffer and standardized for the number of eggs present in a particular volume.
Entire composition of cocktail (total volume 1 ml) is mentioned as follows:
Eggs were left on rotation in this cocktail at a slow speed for 24 hrs. […] They were allowed to grow till adulthood when 100 worms belonging to each treatment regime were transferred onto FuDR containing RNAi plates and life span was scored as mentioned above. iUPR^ER efficiency was also measured on Day 2 of adulthood, as mentioned previously.
Since transient up-regulation of UPR^ER was observed, experiments were conducted to see its causal role in life span extension, as observed during DR. […] After the pharmaceutical reagent was washed off, the worms were grown on solid NGM media and post-adult life span was recorded. […] This observation supports the role of hormesis, triggered by an early ER stress as a mechanism of DR-mediated life span enhancement, in the models that were tested.

Phsp-4:gfp(zcIs4) worms = assay: Induced UPR^ER (iUPR^ER) efficiency, Phsp-4:gfp fluorescence after acute Tm challenge in adulthood; settings: for iUPR^ER at adulthood after Tm hormesis: acute 5 mg/mL tunicamycin treatment, day 2 of adulthood
Description: Transgenic Phsp-4:gfp(zcIs4) and eat-2(ad1116);Phsp-4:gfp(zcIs4) were bleached and eggs were hatched on control RNAi. Worms were allowed to grow till adulthood and then transferred onto plates overlaid with FuDR to a final concentration of 0.1 mg/ml. […] Since Tm is dissolved in 0.05% DMSO, it was used as vehicle control. After 6 hours, 50 worms from each treatment were mounted onto 2% agarose slides and visualized using Axio-Imager M2 epifluorescent microscope with a GFP filter set (Carl Zeiss, Germany) Fluorescence of ≥20 Tm-treated and untreated worms was quantified using NIH ImageJ software. Average fluorescence of treated worms was normalized to untreated worms and plotted as normalized GFP fold induction at different days of adulthood. Similar procedure was followed to compare iUPR^ER efficiency of Phsp-4:gfp(zcIs4) on control and drl-1 RNAi on different days of adulthood.
Eggs were left on rotation in this cocktail at a slow speed for 24 hrs. Following this, the hatched L1 larvae were washed 3-4 times with 1×M9 buffer to remove traces of tunicamycin and added onto seeded control RNAi or test RNAi plates containing no reagent. They were allowed to grow till adulthood when 100 worms belonging to each treatment regime were transferred onto FuDR containing RNAi plates and life span was scored as mentioned above. iUPR^ER efficiency was also measured on Day 2 of adulthood, as mentioned previously.
Since it was observed that transient ER stress using Tm at early post-embryonic stage increased life span, it was tested whether this treatment could also lead to a better iUPR^ER efficiency with age. […] Importantly, hormetic up-regulation of the ER stress response during early developmental life leads to this increased ER efficiency contributing towards enhanced longevity during DR.

[1] = system: Punc-54:polyQ40:yfp worms; assay: PolyQ aggregate number in adult worms after transient Tm exposure
Excerpt: In order to evaluate the role of DR in augmenting the ERAD and its physiological consequences, a reporter was used that expresses a stretch of 40 glutamines (Q40) tagged with a yellow fluorescent protein in C. elegans muscle. This reporter strain was crossed with eat-2(ad1116) mutant worms to generate worms carrying both the reporter transgene and the eat-2 mutation (hereafter, referred to as eat-2;PolyQ). It was observed that incorporating eat-2 mutation led to 60-80% suppression in the number of aggregates at all age points, supporting the earlier observation of alleviation in the age-associated increase in PolyQ aggregation during DR (FIG. 6A). […] Since ire-1 was a requirement for DR-mediated longevity, it was tested whether this beneficial effect conferred under DR is also dependent on this gene.
It was reported that an atypical up-regulation of UPR^ER in larvae contributes towards increased life span during DR. It was shown that pharmaceutically mimicking the transient UPR^ER up-regulation during early larval life augmented the iUPR^ER efficiency with age and increased life span. To determine whether such hormetic intervention can protect against the age-related proteostasis collapse, WT worms were exposed with a range of concentrations of Tm only during the start of larval development, as mentioned before. […]

## O=CC[C@@H](O)[C@H](O)[C@H](O)CO [2-DG, 2-deoxy glucose]
C. elegans; WT, transient 2DG 0.0625 mM first 24 hours
  Effect on life span: increased; also recorded: significantly increasing life span
C. elegans; Wild type, 2-DG 0.0625 mM for first 24 hours
  Life span Mean ± SEM: 21.21 ± 0.37 days
C. elegans; Wild type, 2-DG 0.0625 vs 0 mM
  Life span % Change: 11.69%
C. elegans; ire-1(v33), 2-DG 0.0625 mM for first 24 hours
  Life span Mean ± SEM: 20.07 ± 0.26 days
C. elegans; ire-1(v33), 2-DG 0.0625 vs 0 mM
  Life span % Change: −0.64%
C. elegans; ire-1(v33), transient 2DG treatment
  Effect on life span: failed to increase life span; also recorded: ire-1-dependent manner

## Tunicamycin [Tm]
Phsp-4:gfp(zcIs4) worms; control RNAi worms
  iUPR^ER at adulthood after Tm hormesis: even higher iUPR^ER
Phsp-4:gfp(zcIs4) worms; pha-4 RNAi worms
  iUPR^ER at adulthood after Tm hormesis: not able to increase the iUPR^ER response
Phsp-4:gfp(zcIs4) worms; transient Tm 24 hours post-bleaching, challenge Tm 10 μg/ml for 6 hours on day 2
  iUPR^ER efficiency at day 2 of adulthood: increases iUPR^ER efficiency; also recorded: higher iUPR^ER efficiency
[1]; Punc-54:polyQ40:yfp on control RNAi, 0.125 μg/ml and 0.25 μg/ml Tm during larval development, day 2 and day 3 of adulthood
  Number of polyQ aggregates: suppression; also recorded: significant reduction in the number of aggregates
[1]; ire-1(v33);Q40:yfp worms treated with hormetic dose of Tm (0.125 μg/ml)
  Number of polyQ puncta: significantly higher puncta at all age points
C. elegans; WT larvae, 0.125 μg/ml Tm during first 24 hours
  Effect on life span: sufficient to extend lifespan; also recorded: significant extension of life span
C. elegans; WT on control or pha-4 RNAi, Tm 0.125 μg/mL initial 24 h
  Dependence of Tm hormesis life span extension on PHA-4: suppressed; also recorded: dependent on PHA-4
C. elegans; WT vs ire-1(v33), Tm 0.125 μg/ml initial 24 hours
  Dependence of Tm life span effect on ire-1: completely dependent on ire-1
C. elegans; Wild type (for eat-2 hormesis expt), Tm 0.125 μg/ml for first 24 hours
  Life span Mean ± SEM: 21.58 ± 0.36 days
C. elegans; Wild type (for eat-2 hormesis expt), Tm 0.125 vs 0 μg/ml
  Life span % Change: 15.83%
C. elegans; Wild type (for ire-1 hormesis expt), Tm 0.125 μg/ml for first 24 hours
  Life span Mean ± SEM: 22.02 ± 0.30 days
C. elegans; Wild type (for ire-1 hormesis expt), Tm 0.125 vs 0 μg/ml
  Life span % Change: 18.83%
C. elegans; Wild type, Tm 0.125 μg/ml for first 24 hours
  Life span Mean ± SEM: 21.73 ± 0.28 days
C. elegans; Wild type, Tm 0.125 vs 0 μg/ml
  Life span % Change: 17.78%
C. elegans; eat-2 (ad1116), Tm 0.125 μg/ml for first 24 hours
  Life span Mean ± SEM: 25.32 ± 0.45 days
C. elegans; eat-2 (ad1116), Tm 0.125 vs 0 μg/ml
  Life span % Change: −10.47%
C. elegans; eat-2(ad1116), Tm supplementation
  Effect on life span: cannot further increase lifespan
C. elegans; ire-1(v33), Tm 0.125 μg/ml for first 24 hours
  Life span Mean ± SEM: 18.64 ± 0.21 days
C. elegans; ire-1(v33), Tm 0.125 vs 0 μg/ml
  Life span % Change: −0.85%
